Values joined by “and” are separate entries in the source; they are usually repeats but may differ in a detail not shown here. Identical values can stand only once. Inconclusive results and toxic doses are left out.
Tested on: L1210 leukemia ip in BDF1 mice, survival T/C
Experiment: NCI In Vivo Anticancer Drug Screen. Data for tumor model L1210 Leukemia (intraperitoneal) in B6D2F1 (BDF1) mice
Conditions: endpoint: mean survival time, higher = longer survival
Summary of the method: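 Survival endpoint. Drug-treated group vs vehicle group, expressed as T divided by C. Tumor passaged by transplantation.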

[1] = dose: 100.0 mg/kg/injection, schedule: Q04DX002 (ip), vehicle: saline with Tween-80
[2] = dose: 100.0 mg/kg/injection, schedule: Q04DX003 (ip), vehicle: saline with Tween-80
[3] = dose: 200.0 mg/kg/injection, schedule: Q04DX002 (ip), vehicle: saline with Tween-80
[4] = dose: 200.0 mg/kg/injection, schedule: Q04DX003 (ip), vehicle: saline with Tween-80
[5] = dose: 400.0 mg/kg/injection, schedule: Q04DX002 (ip), vehicle: saline with Tween-80
[6] = dose: 400.0 mg/kg/injection, schedule: Q04DX003 (ip), vehicle: saline with Tween-80
[7] = dose: 100.0 mg/kg/injection, schedule: Q01DX001 (ip), vehicle: saline
[8] = dose: 200.0 mg/kg/injection, schedule: Q01DX001 (ip), vehicle: saline
[9] = dose: 100.0 mg/kg/injection, schedule: Q04DX003 (ip), vehicle: Klucel (hydroxypropylcellulose) (HPC)
[10] = dose: 200.0 mg/kg/injection, schedule: Q04DX003 (ip), vehicle: Klucel (hydroxypropylcellulose) (HPC)
[11] = dose: 400.0 mg/kg/injection, schedule: Q04DX003 (ip), vehicle: Klucel (hydroxypropylcellulose) (HPC)
[12] = dose: 400.0 mg/kg/injection, schedule: Q01DX001 (ip), vehicle: saline
[13] = dose: 100.0 mg/kg/injection, schedule: Q01DX001 (ip), vehicle: carboxymethylcellulose (CMC)
[14] = dose: 200.0 mg/kg/injection, schedule: Q01DX001 (ip), vehicle: carboxymethylcellulose (CMC)
[15] = dose: 400.0 mg/kg/injection, schedule: Q01DX001 (ip), vehicle: carboxymethylcellulose (CMC)
[16] = dose: 100.0 mg/kg/injection, schedule: Q01DX001 (ip), vehicle: Klucel (hydroxypropylcellulose) (HPC)
[17] = dose: 200.0 mg/kg/injection, schedule: Q01DX001 (ip), vehicle: Klucel (hydroxypropylcellulose) (HPC)
[18] = dose: 400.0 mg/kg/injection, schedule: Q01DX001 (ip), vehicle: Klucel (hydroxypropylcellulose) (HPC)
[19] = dose: 100.0 mg/kg/injection, schedule: Q04DX003 (ip), vehicle: saline

In the case of `COc1ccc(C(=O)NC(=S)Nc2ccc(CCO)cc2)cc1`, the T/C (dose: 100.0 mg/kg/injection, schedule: Q01DX009 (ip), vehicle: saline with Tween-80) is reported as 98 % of control and 101 % of control, the T/C [1] is reported as 98 % of control and the T/C [2] is reported as 96 % of control. The T/C (dose: 200.0 mg/kg/injection, schedule: Q01DX009 (ip), vehicle: saline with Tween-80) was 101 % of control and 102 % of control, the T/C [3] was 100 % of control and the T/C [4] was 94 % of control. The T/C (dose: 400.0 mg/kg/injection, schedule: Q01DX009 (ip), vehicle: saline with Tween-80) was 94 % of control and 104 % of control, the T/C [5] was 98 % of control and the T/C [6] was 92 % of control.
In the case of `O=C(Oc1ccccc1)C1OC1c1ccccc1` (centres undefined), the T/C (dose: 100.0 mg/kg/injection, schedule: Q04DX003 (ip), vehicle: alcohol) is reported as 103 % of control, the T/C (dose: 200.0 mg/kg/injection, schedule: Q04DX003 (ip), vehicle: alcohol) is reported as 98 % of control and the T/C (dose: 400.0 mg/kg/injection, schedule: Q04DX003 (ip), vehicle: alcohol) is reported as 105 % of control.
In the case of `CN(C)C(=O)C1C2C=CC(C2)C1C(=O)N(C)C` (centres undefined), the T/C [2] is reported as 98 % of control, the T/C [4] is reported as 95 % of control and the T/C [6] is reported as 98 % of control.
`Cc1ccc(O)c(N=O)c1.[Cu+2]` was tested, and the T/C (dose: 50.0 mg/kg/injection, schedule: Q01DX001 (ip), vehicle: saline) was 97 % of control, the T/C [7] was 103 % of control and the T/C [8] was 103 % of control.
`[CH3][Sn]([CH3])([Cl])[Cl]` was tested, and the T/C (dose: 29.0 mg/kg/injection, schedule: Q01DX009 (ip), vehicle: saline) was 112 % of control.
With `O=C(O)C(CCO)c1ccccc1` (centres undefined) the T/C [1] was 95 % of control, the T/C [3] was 100 % of control and the T/C [5] was 95 % of control.
In the case of `N#CC(C#N)=Cc1c2ccccc2cc2ccccc12`, the T/C [9] is reported as 94 % of control, the T/C [10] is reported as 91 % of control and the T/C [11] is reported as 112 % of control.
`COC(=O)CCC(C(=O)OC)P(=O)(OC(C)C)OC(C)C` (centres undefined) was tested, and the T/C [7] was 96 % of control, the T/C [8] was 102 % of control and the T/C [12] was 86 % of control.
With `CC(C)(C[NH-])C[NH-].CC(C)(C[NH-])C[NH-].CC(C)(C[NH-])C[NH-].[Co]` the T/C (dose: 48.0 mg/kg/injection, schedule: Q01DX Z (ip), vehicle: saline) was 121 % of control, the T/C (dose: 73.0 mg/kg/injection, schedule: Q01DX Z (ip), vehicle: saline) was 121 % of control and the T/C (dose: 110.0 mg/kg/injection, schedule: Q01DX Z (ip), vehicle: saline) was 119 % of control. The T/C (dose: 165.0 mg/kg/injection, schedule: Q01DX Z (ip), vehicle: saline) was 116 % of control.
With `O=C1c2cc(N=C(NO)C(F)(F)F)ccc2-c2ccc([N+](=O)[O-])cc21` the T/C [13] was 90 % of control, the T/C [14] was 90 % of control and the T/C [15] was 100 % of control.
With `CC(=O)NC(C)(SC(C)=O)C(=O)O` (centres undefined) the T/C [16] was 94 % of control, the T/C [17] was 95 % of control and the T/C [18] was 94 % of control.
For `CC/C(C)=C\CC/C(C)=C\COc1ccccc1[N+](=O)[O-]`, the T/C (dose: 100.0 mg/kg/injection, schedule: Q01DX009 (ip), vehicle: carboxymethylcellulose (CMC)) was 100 % of control, the T/C (dose: 200.0 mg/kg/injection, schedule: Q01DX009 (ip), vehicle: carboxymethylcellulose (CMC)) was 100 % of control and the T/C (dose: 400.0 mg/kg/injection, schedule: Q01DX009 (ip), vehicle: carboxymethylcellulose (CMC)) was 98 % of control.
In the case of `COC(=O)C1(C)COP(=O)(N2CC2C)OC1` (centres undefined), the T/C [7] is reported as 101 % of control, the T/C [8] is reported as 101 % of control and the T/C [12] is reported as 97 % of control.
`Cn1cc(C=O)c2nccnc21` was tested, and the T/C (dose: 50.0 mg/kg/injection, schedule: Q01DX009 (ip), vehicle: saline) was 98 % of control, the T/C (dose: 100.0 mg/kg/injection, schedule: Q01DX009 (ip), vehicle: saline) was 95 % of control and the T/C [19] was 100 % of control. The T/C (dose: 200.0 mg/kg/injection, schedule: Q01DX009 (ip), vehicle: saline) was 98 % of control and the T/C (dose: 200.0 mg/kg/injection, schedule: Q04DX003 (ip), vehicle: saline) was 100 % of control.
In the case of `COc1c2ccoc2nc2ccc3c(c12)C=CC(C)(C)O3`, the T/C (dose: 50.0 mg/kg/injection, schedule: Q01DX001 (ip), vehicle: carboxymethylcellulose (CMC)) is reported as 98 % of control, the T/C [13] is reported as 104 % of control and the T/C [14] is reported as 104 % of control. For the same compound, the T/C [15] was 98 % of control.
With `O=C(CBr)Nc1ccc(C(=O)O)c(O)c1` the T/C (dose: 12.5 mg/kg/injection, schedule: Q04DX003 (ip), vehicle: Klucel (hydroxypropylcellulose) (HPC)) was 103 % of control, the T/C (dose: 25.0 mg/kg/injection, schedule: Q04DX003 (ip), vehicle: Klucel (hydroxypropylcellulose) (HPC)) was 92 % of control and the T/C (dose: 50.0 mg/kg/injection, schedule: Q04DX003 (ip), vehicle: Klucel (hydroxypropylcellulose) (HPC)) was 92 % of control.
For `N#CCCC(C#N)(C#N)CCC#N`, the T/C (dose: 175.0 mg/kg/injection, schedule: Q01DX001 (ip), vehicle: saline) was 97 % of control, the T/C (dose: 265.0 mg/kg/injection, schedule: Q01DX001 (ip), vehicle: saline) was 100 % of control and the T/C [12] was 96 % of control. The T/C (dose: 600.0 mg/kg/injection, schedule: Q01DX001 (ip), vehicle: saline) was 91 % of control.
In the case of `NC(=O)N/N=C/Cc1ccc2c(c1)OCO2`, the T/C [13] is reported as 97 % of control, the T/C [14] is reported as 87 % of control and the T/C [15] is reported as 92 % of control.
For `CCCCS(=O)(=O)Nc1ccc(Nc2c3ccccc3nc3ccccc23)c(OC)c1`, the T/C (dose: 12.5 mg/kg/injection, schedule: Q01DX009 (ip), vehicle: saline) was 150 % of control, the T/C (dose: 25.0 mg/kg/injection, schedule: Q01DX009 (ip), vehicle: saline) was 153 % of control and the T/C (dose: 50.0 mg/kg/injection, schedule: Q01DX009 (ip), vehicle: Klucel (hydroxypropylcellulose) (HPC)) was 154 % of control.
In the case of `C[C@@H]1C[C@@]2(C)[C@@H](CC[C@@H]3[C@@H]2CC[C@]2(C)[C@@H](OC4CCCCO4)CC[C@@H]32)CC1=O` (some centres undefined), the T/C [13] is reported as 93 % of control and the T/C [15] is reported as 88 % of control.
For `S=C(c1ccc2ccccc2n1)N1CCOCC1`, the T/C [9] was 100 % of control, the T/C [10] was 91 % of control and the T/C [11] was 105 % of control.
With `O=S1c2ccccc2Oc2ccccc21` the T/C (dose: 100.0 mg/kg/injection, schedule: Q04DX002 (ip), vehicle: Klucel (hydroxypropylcellulose) (HPC)) was 108 % of control, the T/C (dose: 200.0 mg/kg/injection, schedule: Q04DX002 (ip), vehicle: Klucel (hydroxypropylcellulose) (HPC)) was 108 % of control and the T/C (dose: 400.0 mg/kg/injection, schedule: Q04DX002 (ip), vehicle: Klucel (hydroxypropylcellulose) (HPC)) was 108 % of control.
In the case of `O=Nc1ccc(NO)c2ccccc12`, the T/C (dose: 12.5 mg/kg/injection, schedule: Q04DX003 (ip), vehicle: saline) is reported as 108 % of control, the T/C (dose: 25.0 mg/kg/injection, schedule: Q04DX003 (ip), vehicle: saline + alcohol) is reported as 100 % of control and the T/C (dose: 25.0 mg/kg/injection, schedule: Q04DX003 (ip), vehicle: saline) is reported as 102 % of control. The T/C (dose: 50.0 mg/kg/injection, schedule: Q04DX003 (ip), vehicle: saline + alcohol) was 100 % of control, the T/C (dose: 50.0 mg/kg/injection, schedule: Q04DX003 (ip), vehicle: saline) was 100 % of control and the T/C (dose: 100.0 mg/kg/injection, schedule: Q04DX003 (ip), vehicle: saline + alcohol) was 96 % of control. For the same compound, the T/C [19] was 99 % of control.
In the case of `CCC(Oc1ccccc1OC)C(=O)O` (centres undefined), the T/C [16] is reported as 105 % of control, the T/C [17] is reported as 103 % of control and the T/C [18] is reported as 103 % of control.

From PubChem BioAssay AID248 (DTP/NCI, 2004)
